Literature values as cited in patent publication US20110244057A1, “COMBINATION THERAPIES WITH TOPIRAMATE FOR SEIZURES, RESTLESS LEGS SYNDROME, AND OTHER NEUROLOGICAL CONDITIONS” (priority 2008, published 2011).

Legend:
kindled seizures = conditions: rats; Wauquier and Zhou, Epilepsy Res. 24:73-77, 1996
[1] = doses of 100 mg/day and 200 mg/day; Romigi et al., J. Neurology, 2007

SMILES: CC1(C)O[C@@H]2[C@@H](CO[C@@]3(COS(N)(=O)=O)OC(C)(C)O[C@@H]23)O1 [topiramate, 2,3:4,5-bis-O-(1-methylethyldiene)-β-D-fructopyranose sulfamate]
- effect on kindled seizures (kindled seizures): blocks kindled seizures
- induction of Restless Leg Syndrome (RLS) [1]: cause RLS
